US20240174618A1, “SUBSTITUTED (2-HETEROARYLOXYPHENYL)SULFONATES, SALTS THEREOF AND THEIR USE AS HERBICIDAL AGENTS” (Bayer Aktiengesellschaft, priority 2021, published 2024)

How the values were obtained:
Assay type in all cases: in vivo
[1] = system: Matricaria inodora (MATIN); assay: C. Herbicidal pre-emergence efficacy, MATIN; conditions: scored after about 3 weeks
Description: (§1) Seeds of monocotyledonous and dicotyledonous weed plants and crop plants were placed in plastic or organic planting pots and covered with soil. The compounds of the invention, formulated in the form of wettable powders (WP) or as emulsion concentrates (EC), were then applied to the surface of the covering soil as aqueous suspension or emulsion with addition of 0.5% additive at a water application rate equivalent to 600 l/ha (converted). After the treatment, the pots were placed in a greenhouse and kept under good growth conditions for the test plants. After about 3 weeks, the efficacy of the preparations was scored visually in comparison with untreated controls as percentages. For example, • 100% efficacy=plants have died, • 0% efficacy=like untreated control plants.
(§2) Tables C1a to C14b below show the effects of selected compounds of the general formula (I) according to table 1 on various harmful plants at an application rate corresponding to 320 g/ha or less, which were obtained by the experimental procedure mentioned above.

[2] = system: Abutilon theophrasti (ABUTH); assay: B. Herbicidal post-emergence efficacy, ABUTH; conditions: rated visually after about 3 weeks
In short: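 Post-emergence greenhouse test: one-leaf-stage plants, compound (WP/EC, +0.5% additive, 600 L/ha water, ≤1280 g/ha) applied to green parts; % efficacy scored visually vs untreated after ~3 wk; 100% = plants died.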

[3] = system: Zea mays (ZEAMX); assay: F. Post-emergence effect on useful plants, ZEAMX; conditions: useful plant
In short: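 Crop plants grown in sandy loam in the greenhouse were sprayed at the one-leaf stage, 2-3 weeks after sowing, with WP or EC formulations plus 0.5% additive at 600 l/ha water. Damage was scored visually after about 3 weeks against untreated controls (0% = like control, 100% = dead).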

[4] = system: Alopecurus myosuroides (ALOMY); assay: B. Herbicidal post-emergence efficacy, ALOMY; conditions: 1280 g/ha, rated visually after about 3 weeks
Protocol: Seeds of mono- and dicotyledonous weed plants were placed in plastic pots in sandy loam soil (doubly sown with in each case one species of mono- or dicotyledonous weed plants per pot), covered with soil and cultivated in a greenhouse under controlled growth conditions. 2 to 3 weeks after sowing, the test plants were treated at the one-leaf stage. The compounds of the invention, formulated in the form of wettable powders (WP) or as emulsion concentrates (EC), were applied onto the green parts of the plants as aqueous suspension or emulsion with addition of 0.5% additive at a water application rate of 600 liters per hectare (converted). After the test plants had been kept in the greenhouse under optimum growth conditions for about 3 weeks, the activity of the preparations was rated visually in comparison to untreated controls.
For example, • 100% efficacy=plants have died, • 0% efficacy=like untreated control plants
Tables B1a to B12c below show the effects of selected inventive compounds of the general formula (I) according to table 1 on various harmful plants at an application rate corresponding to 1280 g/ha or less, which were obtained by the experimental procedure mentioned above.

[5] = system: Alopecurus myosuroides (ALOMY); assay: E. Herbicidal post-emergence efficacy, ALOMY; conditions: application rate 320 g/ha
Protocol: (§3) Seeds of monocotyledonous and dicotyledonous weeds and crop plants were placed in sandy loam in plastic or organic planting pots, covered with soil and cultivated in a greenhouse under controlled growth conditions. 2 to 3 weeks after sowing, the test plants were treated at the one-leaf stage. The compounds of the invention, formulated in the form of wettable powders (WP) or as emulsion concentrates (EC), were then sprayed onto the green parts of the plants as aqueous suspension or emulsion with addition of 0.5% additive at a water application rate of 600 l/ha (converted). After the test plants had been kept in the greenhouse under optimum growth conditions for about 3 weeks, the activity of the preparations was rated visually in comparison to untreated controls.
(§4) For example, • 100% efficacy=plants have died, • 0% action=like untreated control plants.
(§5) Tables E1a to E12b below show the effects of selected compounds of the general formula (I) according to table 1 on various harmful plants at an application rate corresponding to 320 g/ha or less, which were obtained by the experimental procedure mentioned above.

[6] = system: Pharbitis purpurea (PHBPU); assay: C. Herbicidal pre-emergence efficacy, PHBPU; conditions: 320 g/ha, scored after about 3 weeks
Description: as §1, §2

[7] = system: Avena fatua (AVEFA); assay: C. Herbicidal pre-emergence efficacy, AVEFA; conditions: 320 g/ha, scored after about 3 weeks
Description: as §1, §2

[8] = system: Digitaria sanguinalis (DIGSA); assay: C. Herbicidal pre-emergence efficacy, DIGSA; conditions: scored after about 3 weeks
In short: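 Pre-emergence test: formulated compounds sprayed as aqueous suspension or emulsion with 0.5% additive at 600 l/ha onto soil covering sown seeds, at rates corresponding to 320 g/ha or less. After about 3 weeks in greenhouse, efficacy scored visually as percent versus untreated controls (100% = plants dead).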

[9] = system: Digitaria sanguinalis (DIGSA); assay: E. Herbicidal post-emergence efficacy, DIGSA
Protocol: as §3, §4, §5

[10] = system: Zea mays (ZEAMX); assay: D. Pre-emergence effect on useful plants, ZEAMX; conditions: useful plant
In short: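 Seeds sown in pots and covered with soil; WP or EC formulations sprayed on the soil surface as aqueous suspension/emulsion with 0.5% additive at 600 l/ha water. Plants grown in greenhouse; crop damage scored visually after about 3 weeks as % versus untreated controls (100% = dead, 0% = like control).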

| Compound | Pre-emergence efficacy against MATIN ([1]; 320 g/ha) | Post-emergence efficacy against ABUTH in % ([2]; 320 g/ha) | Post-emergence efficacy against ABUTH in % ([2]; 1280 g/ha) | Post-emergence efficacy against ZEAMX in % ([3]; application rate 80 g/ha) | Post-emergence efficacy against ALOMY in % [4] | Post-emergence efficacy against ALOMY in % [5] | Pre-emergence efficacy against PHBPU [6] | Pre-emergence efficacy against AVEFA [7] | Pre-emergence efficacy against DIGSA ([8]; 80 g/ha) | Pre-emergence efficacy against DIGSA ([8]; 320 g/ha) | Post-emergence efficacy against DIGSA in % ([9]; application rate 80 g/ha) | Post-emergence efficacy against DIGSA in % ([9]; application rate 320 g/ha) | Post-emergence efficacy against ZEAMX in % ([3]; application rate 320 g/ha) | Pre-emergence efficacy against ZEAMX in % ([10]; application rate 80 g/ha) | Pre-emergence efficacy against ZEAMX in % ([10]; application rate 320 g/ha) | Post-emergence efficacy against ABUTH in % ([2]; 80 g/ha) | Pre-emergence efficacy against MATIN ([1]; 80 g/ha) |
| --- | --- | --- | --- | --- | --- | --- | --- | --- | --- | --- | --- | --- | --- | --- | --- | --- | --- |
| CCCS(=O)(=O)Oc1ccccc1Oc1ncc(Cl)cn1 [Example I-3] | 90% | 90% | 100% | 10% | 90% | 80% | 80% |  |  |  |  |  |  |  |  |  |  |
| CCCCS(=O)(=O)Oc1ccccc1Oc1ncc(Cl)cn1 [Example I-6] |  | 90% | 90% |  |  | 90% | 80% | 80% | 100% | 100% | 80% | 100% |  |  |  |  |  |
| CC(C)CS(=O)(=O)Oc1ccccc1Oc1ncc(Cl)cn1 [Example I-7, [2-(5-Chloropyrimidin-2-yl)oxyphenyl] 2-methylpropane-1-sulfonate] |  | 90% | 90% |  |  | 90% |  | 90% | 100% | 100% | 90% | 100% |  |  |  |  |  |
| O=S(=O)(CCl)Oc1ccccc1Oc1ncc(Cl)cn1 [Example I-9] | 80% | 90% | 90% | 20% |  |  |  |  |  | 100% |  | 80% | 20% | 0% | 20% |  |  |
| O=S(=O)(CCCCCl)Oc1ccccc1Oc1ncc(Cl)cn1 [Example I-15] |  | 100% | 100% |  |  |  | 90% |  | 100% | 100% | 80% | 90% |  |  |  | 100% |  |
| CCS(=O)(=O)Oc1ccccc1Oc1ncc(Cl)cn1 [Example I-16] |  | 90% | 100% |  | 90% |  |  |  |  |  |  |  |  |  |  |  |  |
| O=S(=O)(CCC(F)(F)F)Oc1c(Cl)cccc1Oc1ncc(Br)cn1 [Example I-32] | 80% | 100% | 100% | 20% | 90% |  |  |  |  | 100% |  | 90% |  |  |  | 100% |  |
| O=S(=O)(CCC(F)(F)F)Oc1c(Cl)cccc1Oc1ncc(Cl)cn1 [Example I-38] | 80% |  |  |  |  | 80% |  |  | 100% | 100% |  | 90% |  |  |  |  | 80% |
| O=S(=O)(CCCC(F)(F)F)Oc1c(Cl)cccc1Oc1ncc(Cl)cn1 [Example I-39] | 80% |  | 90% | 20% |  |  | 90% |  | 100% | 100% | 90% | 100% |  | 0% |  |  |  |
